Results as given in paper PMC8247773, “Benzohydrazide and Phenylacetamide Scaffolds: New Putative ParE Inhibitors” (Frontiers in Bioengineering and Biotechnology, 2021).
Values after ≈ are worked out from the molar mass of the structure shown. Values joined by “and” are separate entries in the source; they are usually repeats but may differ in a detail not shown here. Identical values can stand only once.

Assays:
MRSA (NCIM 5021) [1] = assay: Minimum bactericidal concentration (MBC); format: cell-based, methicillin-resistant Staphylococcus aureus
Method: (§1) MBC can be defined as the minimum concentration of a compound required to kill the bacteria over a fixed period under precise conditions. […] Colonies were counted, and colony forming unit (CFU) per milliliter was calculated.

MRSA (ATCC43300) [2] = assay: Minimum bactericidal concentration (MBC); format: cell-based, methicillin-resistant Staphylococcus aureus
Method: as §1

[3] = tested on: Staphylococcus aureus (NCIM 5022); set-up: method as in Yele et al., 2020, 2021; details: ref Yele et al., 2020, 2021; cited from earlier work
MRSA (NCIM 5021) [4] = assay: Antibacterial susceptibility test, microbroth dilution MIC; format: cell-based, methicillin-resistant Staphylococcus aureus; details: mean ± SD
[5] = tested on: Bacillus subtilis (NCIM 2545); set-up: method as in Yele et al., 2020, 2021; details: ref Yele et al., 2020, 2021; cited from earlier work
[6] = tested on: Escherichia coli (NCIM 2065); assay: Minimum bactericidal concentration (MBC); format: cell-based; details: E. Coli (NCIM 2065); for MBC/MIC: ratio ≤2 bactericidal, ≥4 tolerance
Method: as §1

[7] = tested on: Staphylococcus epidermis (NCIM 2493); set-up: method as in Yele et al., 2020, 2021; details: ref Yele et al., 2020, 2021; cited from earlier work
[8] = tested on: Klebsiella pneumonia (NCIM 2706); set-up: method as in Yele et al., 2020, 2021; details: ref Yele et al., 2020, 2021; cited from earlier work
[9] = tested on: Mycobacterium tuberculosis (NCIM 2984); set-up: method as in Yele et al., 2020, 2021; details: ref Yele et al., 2020, 2021; cited from earlier work
[10] = tested on: Escherichia coli (NCIM 2567); set-up: method as in Yele et al., 2020, 2021; details: ref Yele et al., 2020, 2021; cited from earlier work
[11] = tested on: Pseudomonas aeruginosa (NCIM 2036); set-up: method as in Yele et al., 2020, 2021; details: ref Yele et al., 2020, 2021; cited from earlier work
[12] = tested on: Salmonella typhi (NCIM 2501); set-up: method as in Yele et al., 2020, 2021; details: ref Yele et al., 2020, 2021; cited from earlier work
MRSA (ATCC43300) [13] = assay: Antibacterial susceptibility test, microbroth dilution MIC; format: cell-based, methicillin-resistant Staphylococcus aureus; details: mean ± SD
[14] = tested on: Escherichia coli (NCIM 2065); assay: as above; format: cell-based; details: E. Coli (NCIM 2065), mean ± SD
E. coli ParE enzyme = molecular target: T1, E. coli ParE enzyme (Escherichia coli, UniProt P20083); assay: E. coli ParE ATPase enzyme inhibition assay (ProFoldin kit, malachite green); format: biochemical; details: ATPase activity, mean ± SD (n = 3)
T1 construct: purchased ProFoldin, Hudson, United States
Method: The assay was performed as per the standard protocol provided by the ProFoldin. […] ParE hydrolyzes ATP as the source of molecular energy to perform decatenation reactions. Fluoroquinolones and aminocoumarins usually block ATPase activity to hinder the biological activities of topoisomerase II. Thus, the topoisomerase ATPase assay can be used for high-throughput screening of topoisomerase inhibitors. The ATPase activity of the E. coli ParE enzyme was based on the detection of inorganic phosphate produced by the hydrolysis of ATP in the presence of DNA. The phosphate is detected using a microplate reader at an absorbance wavelength of 650 nm. The selected compounds were tested for the inhibition of ATPase activity of ParE enzyme. […] The reaction mixture was incubated for 1 h at 37°C and then quenched with 45 μL of Dye. Incubate for 5 min, and the absorbance was measured at 650 nm. The IC50 values were determined from the absorbance readings using no enzyme and no compound controls. They were calculated using the non-linear regression curve fit method.

[15] = tested on: preformed E. coli biofilm (NCIM 2065); assay: E. coli antibiofilm activity (crystal violet); format: cell-based, Escherichia coli; details: 10× MIC, 24 h
E. coli [16] = assay: Post antibiotic effect (PAE); format: cell-based, Escherichia coli; details: for Time for 1 log10: untreated control 2 h
E. coli [17] = assay: Checkerboard synergy with FDA approved drugs; format: cell-based, Escherichia coli
Vero cells [18] = assay: In vitro cytotoxicity MTT assay; details: CC50 Vero cells / IC50
Vero cells [19] = tested on: Vero cells
[20] = Staphylococcus aureus, read-out: Minimum inhibitory concentration

T1 sequence (P20083 whole entry): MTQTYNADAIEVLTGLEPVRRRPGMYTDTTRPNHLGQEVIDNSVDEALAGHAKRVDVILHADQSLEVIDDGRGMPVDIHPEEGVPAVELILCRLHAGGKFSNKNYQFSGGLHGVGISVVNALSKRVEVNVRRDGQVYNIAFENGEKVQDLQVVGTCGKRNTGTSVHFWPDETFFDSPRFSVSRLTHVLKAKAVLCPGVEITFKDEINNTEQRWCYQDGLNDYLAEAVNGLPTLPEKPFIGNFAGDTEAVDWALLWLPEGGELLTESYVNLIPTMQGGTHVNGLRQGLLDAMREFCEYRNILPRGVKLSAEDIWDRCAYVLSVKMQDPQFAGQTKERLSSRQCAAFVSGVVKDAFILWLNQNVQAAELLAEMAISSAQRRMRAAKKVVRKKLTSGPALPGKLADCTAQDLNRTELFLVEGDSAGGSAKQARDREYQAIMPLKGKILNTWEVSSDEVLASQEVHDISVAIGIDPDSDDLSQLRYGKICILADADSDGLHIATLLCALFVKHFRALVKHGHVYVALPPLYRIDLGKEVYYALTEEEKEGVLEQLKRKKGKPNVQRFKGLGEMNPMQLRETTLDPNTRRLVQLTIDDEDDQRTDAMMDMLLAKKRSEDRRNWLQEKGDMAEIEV
T1 sequence (P0AFI2 whole entry, further chain): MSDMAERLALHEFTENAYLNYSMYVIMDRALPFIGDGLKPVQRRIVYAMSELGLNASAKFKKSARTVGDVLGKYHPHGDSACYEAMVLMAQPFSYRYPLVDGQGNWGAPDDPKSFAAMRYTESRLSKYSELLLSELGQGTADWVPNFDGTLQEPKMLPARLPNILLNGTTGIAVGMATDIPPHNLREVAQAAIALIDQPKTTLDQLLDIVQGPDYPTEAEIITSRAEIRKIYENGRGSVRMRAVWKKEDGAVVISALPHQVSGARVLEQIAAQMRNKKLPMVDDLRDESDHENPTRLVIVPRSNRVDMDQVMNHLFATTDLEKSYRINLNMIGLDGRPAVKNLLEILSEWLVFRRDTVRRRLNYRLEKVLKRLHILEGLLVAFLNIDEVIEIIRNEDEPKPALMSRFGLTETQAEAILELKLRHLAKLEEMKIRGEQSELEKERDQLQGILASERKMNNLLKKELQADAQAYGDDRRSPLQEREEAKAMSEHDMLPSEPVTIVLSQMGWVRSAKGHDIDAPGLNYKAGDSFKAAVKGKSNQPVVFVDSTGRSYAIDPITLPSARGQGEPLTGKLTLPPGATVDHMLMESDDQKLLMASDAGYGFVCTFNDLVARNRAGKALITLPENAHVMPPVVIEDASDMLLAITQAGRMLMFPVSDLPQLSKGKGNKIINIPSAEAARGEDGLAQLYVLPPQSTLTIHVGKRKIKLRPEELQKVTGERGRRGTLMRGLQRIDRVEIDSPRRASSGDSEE

Structure (SMILES) | MBC (MRSA (NCIM 5021) [1]) [µg/mL] | MBC/MIC (MRSA (NCIM 5021) [1]) | MBC (MRSA (ATCC43300) [2]) [µg/mL] | MBC/MIC (MRSA (ATCC43300) [2]) | Minimum inhibitory concentration (MIC) S. a [3] | Minimum inhibitory concentration (MRSA (NCIM 5021) [4]) [µg/mL] | Minimum inhibitory concentration (MIC) B. s [5] | MBC [6] [µg/mL] | MBC/MIC [6] | Minimum inhibitory concentration (MIC) S. e [7] | Minimum inhibitory concentration (MIC) K. p [8] | Minimum inhibitory concentration (MIC) M. t [9] | Minimum inhibitory concentration (MIC) E. c [10] | Minimum inhibitory concentration (MIC) P. a [11] | Minimum inhibitory concentration (MIC) S. t [12] | Minimum inhibitory concentration (MRSA (ATCC43300) [13]) [µg/mL] | Minimum inhibitory concentration [14] | IC50 against E. coli ParE enzyme (E. coli ParE enzyme) [µg/mL] | SI (CC50/IC50) (Vero cells [18]) | CC50 (Vero cells [19]) [µg/mL] | further results
O=C(COc1ccccc1NC(=O)CCl)Nc1ccccc1 [Compound 9] | 4.70 ± 0.41 (≈ 14.7 µM) | 3 | 6.29 ± 0.08 (≈ 19.7 µM) | 4 | 1.52 | 1.71 ± 0.16 (≈ 5.36 µM) | 4.42 | 3.68 ± 0.29 (≈ 11.5 µM) | 2 | 0.98 | 3.81 | 8.65 | 4.25 | 3.35 | 2.35 | 1.75 ± 0.21 (≈ 5.49 µM) | 1.64 ± 0.10 µg/mL (≈ 5.14 µM) | 2.80 (≈ 8.78 µM) |  |  | 
CC1(C)S[C@@H]2[C@H](NC(=O)[C@H](N)c3ccccc3)C(=O)N2[C@H]1C(=O)O [ampicillin] |  |  |  |  |  |  |  |  |  |  |  |  |  |  |  |  |  |  |  |  | reduction in biofilm [15]: 63%
O=C(O)c1cn(C2CC2)c2cc(N3CCNCC3)c(F)cc2c1=O [Ciprofloxacin] |  |  |  |  | 0.68 |  | 0.81 |  |  | 0.74 | 0.63 | 0.60 | 0.97 | 0.67 |  |  |  |  |  |  | MIC (MRSA (NCIM 5021) [4]; [20]): 0.67 ± 0.02 µg/mL (≈ 2.02 µM); PAE = T - C (E. coli [16]; 1 × mic): 1 h; Time for 1 log10 (E. coli [16]; 1 × mic): 3 h; PAE = T - C (E. coli [16]; 10 × mic): 2 h; Time for 1 log10 (E. coli [16]; 10 × mic): 4 h; reduction in biofilm [15]: 86%; MIC (MRSA (ATCC43300) [13]; [20]): 0.7 ± 0.03 µg/mL (≈ 2.11 µM); FIC B (E. coli [17]; FIC of the drug in combination with compound 5): 0.1556; FIC B (E. coli [17]; FIC of the drug in combination with compound 21): 0.1589; Inference (E. coli [17]; drug combined with compound 5): Synergistic (synergistic when the ΣFICs is ≤ 0.5); ΣFIC A + FIC B (E. coli [17]; drug combined with compound 5): 0.3162; Inference (E. coli [17]; drug combined with compound 21): Synergistic (synergistic when the ΣFICs is ≤ 0.5); ΣFIC A + FIC B (E. coli [17]; drug combined with compound 21): 0.3614; MIC ([14]; Escherichia coli, NCIM2065, read-out: Minimum inhibitory concentration): 0.62 ± 0.015 µg/mL (≈ 1.87 µM)
Cc1ccc(C(=O)NNC(=O)COc2ccc3ccccc3c2)cc1 [Compound 22] | 0.90 ± 0.04 (≈ 2.69 µM) | 1 | 0.76 ± 0.06 (≈ 2.27 µM) | 1 | 1.16 | 0.90 ± 0.04 (≈ 2.69 µM) | 3.63 | 0.89 ± 0.01 (≈ 2.66 µM) | 1 | 1.04 | 0.81 | 0.89 | 1.23 | 0.82 | 0.77 | 0.76 ± 0.06 (≈ 2.27 µM) | 0.89 ± 0.01 µg/mL (≈ 2.66 µM) | 1.01 (≈ 3.02 µM) |  |  | 
O=C(COc1ccccc1NC(=O)CCl)Nc1ccc(C(=O)O)cc1 [Compound 3] | 1.84 ± 0.13 (≈ 5.07 µM) | 1 | 1.79 ± 0.21 (≈ 4.93 µM) | 1 | 4.23 | 1.84 ± 0.13 (≈ 5.07 µM) | 6.30 | 1.75 ± 0.09 (≈ 4.82 µM) | 1 | 3.04 | 0.75 | 2.31 | 0.82 | 0.67 | 1.52 | 1.79 ± 0.21 (≈ 4.93 µM) | 1.81 ± 0.15 µg/mL (≈ 4.99 µM) | 0.95 ± 0.09 (≈ 2.62 µM) | 188.2886 | 178.8742 (≈ 493 µM) | 
O=C(COc1ccccc1NC(=O)CCl)Nc1ccc(Cl)cc1 [Compound 2] | 4.8 ± 0.21 (≈ 13.6 µM) | 2 | 2.71 ± 0.21 (≈ 7.67 µM) | 2 | 0.69 | 2.41 ± 0.65 (≈ 6.82 µM) | 0.72 | 2.00 ± 0.01 (≈ 5.66 µM) | 2 | 0.92 | 2.95 | 4.52 | 2.45 | 2.59 | 2.56 | 1.34 ± 0.49 (≈ 3.79 µM) | 1.01 ± 0.19 µg/mL (≈ 2.86 µM) | 2.33 (≈ 6.6 µM) |  |  | 
O=C(CCl)Nc1ccccc1OCC(=O)Nc1ccc([N+](=O)[O-])cc1[N+](=O)[O-] [Compound 7] | 0.95 ± 0.06 (≈ 2.32 µM) | 1 | 0.85 ± 0.09 (≈ 2.08 µM) | 1 | 5.78 | 0.95 ± 0.06 (≈ 2.32 µM) | 6.56 | 0.83 ± 0.1 (≈ 2.03 µM) | 1 | 8.62 | 1.25 | 1.02 | 1.52 | 0.67 |  | 0.85 ± 0.09 (≈ 2.08 µM) | 0.83 ± 0.05 µg/mL (≈ 2.03 µM) | 0.95 ± 0.06 (≈ 2.32 µM) | 236.5585 | 224.7306 (≈ 550 µM) | 
O=C(COc1ccccc1NC(=O)CCl)Nc1ccc([N+](=O)[O-])cc1 [Compound 1] | 0.84 ± 0.13 (≈ 2.31 µM) | 1 | 0.99 ± 0.24 (≈ 2.72 µM) | 1 | 2.56 | 0.84 ± 0.13 (≈ 2.31 µM) | 3.62 | 1.42 ± 0.02 (≈ 3.9 µM) | 2 | 2.98 | 0.78 | 3.85 | 0.75 | 0.69 |  | 0.99 ± 0.24 (≈ 2.72 µM) | 0.72 µg/mL and 0.72 ± 0.07 µg/mL | 0.99 ± 0.01 (≈ 2.72 µM) | 216.0608 | 213.9002 (≈ 588 µM) | 
Cc1ccc(C(=O)NNC(=O)COc2ccccc2NC(=O)CCl)cc1 [Compound 12] | 4.4 ± 0.15 (≈ 11.7 µM) | 2 | 0.96 ± 0.14 (≈ 2.55 µM) | 1 | 3.12 | 2.65 ± 0.46 (≈ 7.05 µM) | 3.72 | 0.86 ± 0.03 (≈ 2.29 µM) | 1 | 2.35 | 0.67 | 3.21 | 1.26 | 1.45 | 1.98 | 0.96 ± 0.14 (≈ 2.55 µM) | 0.86 ± 0.03 µg/mL (≈ 2.29 µM) | 2.34 (≈ 6.23 µM) |  |  | 
